In ChEMBL document CHEMBL5113385, “Natural products and synthetic analogues against HIV: A perspective to develop new potential anti-HIV drugs” (Eur J Med Chem, 2022):

Assays:
[1] = molecular target: T1, Human immunodeficiency virus type 1 reverse transcriptase (Human immunodeficiency virus 1, UniProt Q72547); assay: Inhibition of HIV-1 LTR reverse transcriptase infected in human CEM cells using RNA template incubated for 1 hr by RT-PCR based cell-free assay
[2] = molecular target: Human immunodeficiency virus type 1 protease (Human immunodeficiency virus 1) (UniProt Q72874); assay: Inhibition of HIV-1 protease relative to control; details: concentration not given here
[3] = tested on: Human immunodeficiency virus 1; assay: Antiviral activity against HIV-1 infected in human C8166 cells assessed as reduction in virus-induced cytopathic effect by MTT assay; assay type: functional, organism-based; details: Human immunodeficiency virus 1, C8166
C8166 = assay: Cytotoxicity against human C8166 cells assessed as reduction in cell viability by MTT assay; assay type: functional
[4] = tested on: Human immunodeficiency virus 1; assay: Antiviral activity against HIV-1 infected in human CEM-GFP cells assessed as inhibition of viral replication incubated for 68 hrs by MTT assay; assay type: functional, organism-based; details: Human immunodeficiency virus 1, CEM-GFP
[5] = molecular target: Human immunodeficiency virus type 1 reverse transcriptase (Human immunodeficiency virus 1) (UniProt Q72547); assay: Inhibition of recombinant HIV-1 reverse transcriptase at 200 ug/ml by ELISA relative to control; details: dose 200.0 µg/ml
[6] = molecular target: Human immunodeficiency virus type 1 integrase (Human immunodeficiency virus 1, UniProt Q7ZJM1); assay: Inhibition of recombinant HIV-1 subtype C integrase using double-stranded FITC-labelled target DNA as substrate pre-incubated for 45 mins followed by substrate addition measured after 60 mins by strand transfer inhibition assay
[7] = tested on: Human immunodeficiency virus 1; assay: Antiviral activity against HIV-1 IIIB infected in human MT4 cells assessed as reduction in cytopathic effect measured after 5 days by Cell Titer Glo assay; assay type: functional, organism-based; details: Human immunodeficiency virus 1, IIIB, MT4, 120 h
[8] = molecular target: T1, Human immunodeficiency virus type 1 reverse transcriptase; assay: Inhibition of wild-type HIV-1 reverse transcriptase by Picogreen assay
[9] = tested on: Human immunodeficiency virus 1; assay: Antiviral activity against HIV-1 NL4-3 infected in human TZM-bl cells assessed as viral growth inhibition by luciferase assay; assay type: functional, organism-based; details: Human immunodeficiency virus 1, NL4-3, TZM-bl
[10] = tested on: Human immunodeficiency virus 1; assay: Antiviral activity against HIV-1 assessed as viral growth inhibition; assay type: functional, organism-based
[11] = tested on: Human immunodeficiency virus 1; assay: Antiviral activity against HIV-1 infected in PBMC (unknown origin) assessed as viral growth inhibition; assay type: functional, organism-based; details: Human immunodeficiency virus 1, PBMC
[12] = tested on: Human immunodeficiency virus 1; assay: Antiviral activity against HIV-1 MC99 harboring deltaTat/Rev infected in human 1A2 cells assessed as reduction in syncytium formation preincubated for 1 hr followed by virus infection measured after 3 days by inverted microscopy; assay type: functional, organism-based; details: Human immunodeficiency virus 1, MC99, 1A2
[13] = Selectivity index, ratio of IC50 for human 1A2 cells to EC50 for HIV-1 MC99 harboring deltaTat/Rev infected in human 1A2 cells; assay type: toxicity, cell-based; details: read-out: Ratio IC50/EC50
[14] = molecular target: T1, Human immunodeficiency virus type 1 reverse transcriptase; assay: Inhibition of recombinant HIV-1 reverse transcriptase using ABTS as substrate incubated for 1 hr by ELISA
[15] = molecular target: T1, Human immunodeficiency virus type 1 reverse transcriptase; assay: Inhibition of HIV-1 reverse transcriptase preincubated for 45 mins followed by substrate addition by immunoassay
[16] = molecular target: T1, Human immunodeficiency virus type 1 reverse transcriptase; assay: Inhibition of HIV-1 reverse transcriptase using ABTS as substrate and RNA template primed with oligo(dT)12-18 in presence of digoxigenin/biotin-labeled nucleotides by ELISA

Human immunodeficiency virus type 1 integrase, sequence (Q7ZJM1 whole entry): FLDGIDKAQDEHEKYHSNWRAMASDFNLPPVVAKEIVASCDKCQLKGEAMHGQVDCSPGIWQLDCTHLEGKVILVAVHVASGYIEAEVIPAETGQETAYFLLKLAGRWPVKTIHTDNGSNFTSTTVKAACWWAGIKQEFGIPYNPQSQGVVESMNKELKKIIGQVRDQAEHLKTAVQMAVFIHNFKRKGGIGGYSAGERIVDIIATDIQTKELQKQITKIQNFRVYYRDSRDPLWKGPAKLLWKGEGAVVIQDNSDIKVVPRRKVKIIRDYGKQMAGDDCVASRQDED

C#CCOCc1cn(C2CCON2C(=O)OCc2ccccc2)c(=O)[nH]c1=O (centres undefined)
IC50 [1]: 0.05 µM

C=C(C)[C@@H]1CC[C@@H]2[C@]3(CC[C@]4(C)[C@@H]([C@H](C)CC/C=C(/C)C(=O)O)CC[C@@]24C)C[C@]13CCC(=O)O
inhibition [2]: 89.2%

C=CC(CO)[C@@H]1C[C@H]2c3[nH]c4ccccc4c3CCN2C(=O)[C@H]1CO (some centres undefined)
EC50 [3]: 12.2 µM

C=C(C)[C@@H]1Cc2c(cc3oc(=O)ccc3c2O)O1
CC50 (C8166): > 200 µM

Cc1cc(=O)c2ccc(N=C=S)cc2o1
IC50 [4]: 1 µM

CC(C)=CCc1cc(/C=C/C(=O)O)cc(CC=C(C)C)c1
inhibition [5]: 41.6%

COc1cc2c(c(O)c1C)Oc1c(C=O)c(O)cc(C)c1C(=O)O2
IC50 [6]: 4.65 µM

COc1cc(F)c(C(=O)c2cc(N)nc(Nc3ccc(C#N)cc3)n2)c(F)c1
IC50 [7]: 0.0042 µM

N#Cc1ccc2c(Oc3ccccc3OCCn3ccc(=O)[nH]c3=O)cc(F)cc2c1
IC50 [8]: 0.0048 µM

COc1cc2cc3c(cc2oc1=O)OC(C)(C)CC3
CC50 (C8166): > 200 µM

CCCCCOC(=O)C[C@H](NP(=O)(CO[C@@H](CF)Cn1ccc2c(=O)[nH]c(N)nc21)Oc1ccccc1)C(=O)OCCCCC (some centres undefined)
IC50 [9]: 2 µM

CC1=C(C(=O)OCc2ccccc2)C(c2ccc(Cl)c([N+](=O)[O-])c2)NC(=O)N1 (centres undefined)
IC50 [10]: 15 µg/mL

COc1cc(O)c(-c2c(C)cc(O)c3c2Cc2cccc(O)c2C3=O)c(O)c1C(C)=O
EC50 [11]: 4.3 µM

COc1cc([C@@H]2CC(=O)c3c(cc(OC)c(OC)c3O)O2)cc(OC)c1OC
EC50 [12]: 172 µM | selectivity ratio [13]: 1.12

C=C(C)[C@@H]1CC[C@@H]2[C@]3(CC[C@]4(C)/C(=C(\C)CC/C=C(/C)C(=O)O)CC[C@@]24C)C[C@]13CCC(=O)O
inhibition [2]: 85%

CCCCCOC(=O)C[C@H](NP(=O)(CO[C@@H](CF)Cn1ccc2c(=O)[nH]c(N)nc21)N[C@@H](CC(=O)OCCCCC)C(=O)OCCCCC)C(=O)OCCCCC
IC50 [9]: 2 µM

O=C(O)[C@]1(O)C[C@H](O)[C@@H](O)[C@@H](O)C1
IC50 [14]: 280 µM

CC(=O)N[C@H]1[C@H](O[C@H]2CC[C@]3(C)[C@H]4CC=C5[C@@H]6CC(C)(C)CC[C@]6(C(=O)O)CC[C@@]5(C)[C@]4(C)CC[C@H]3C2(C)C)O[C@H](CO)[C@@H](O)[C@@H]1O
IC50 [6]: 18.3 µM

CC1(C)Oc2cc3oc(=O)ccc3cc2[C@@H](O)[C@@H]1O
CC50 (C8166): > 200 µM

COc1cc(F)c(Nc2cc(N)nc(Nc3ccc(C#N)cc3)n2)c(F)c1
IC50 [7]: 0.002 µM

C=CC(CO)[C@@H]1C[C@H]2c3[nH]c4ccccc4c3CCN2C(=O)[C@@H]1CO (some centres undefined)
EC50 [3]: 12.2 µM

CCn1cc(C(=O)O)c(=O)c2cc(F)c(N3CCN(S(=O)(=O)c4ccc(OC)cc4)CC3)cc21
IC50 [10]: 0.05 µM

CC(C)(O)C(=O)Cc1cc2ccc(=O)oc2cc1O [PEUCEDANONE]
CC50 (C8166): > 200 µM

CC1=C(C(=O)OCc2ccccc2)C(c2cccc(C(F)(F)F)c2)NC(=O)N1 (centres undefined)
IC50 [10]: 15 µg/mL

COc1cc(F)c(Oc2cc(N)nc(Nc3ccc(C#N)cc3)n2)c(F)c1
IC50 [7]: 0.003 µM

O=C1CSC(c2ccc(F)cc2)N1c1nc2c(Cl)cccc2s1 (centres undefined)
IC50 [15]: < 0.001 µM

C=CCOCc1cn(C2CCON2C(=O)OCc2ccccc2)c(=O)[nH]c1=O (centres undefined)
IC50 [1]: 0.01 µM

COC(=O)/C=C/c1c(-c2cccs2)[nH]c2ccccc12
IC50 [16]: 0.72 µM
